The text below walks through data of patent US20260262647A1, “Synergistic Compositions Containing Guanidine” (Thor GmbH, priority 2023, published 2026).

Molecules are shown by their SMILES. Several values for one entry are separate records, joined by “and”; a condition that tells them apart may be missing. Identical values can stand only once.

The subject of this test is Pseudomonas spec. DSM 115322. Kind of test: Minimum inhibitory concentrations and synergy index in Müller-Hinton broth. Type of test: cell-based. How it is done: Test organisms used were Gram-negative bacterial species from the group of pseudomonads, Pseudomonas putida DSM 115323 and Pseudomonas spec. DSM 115322. For this purpose, mixtures with different concentrations of the respective active substances were prepared and tested for their effect on the pseudomonads. The test was run in Müller-Hinton broth MHB with a cell density of 10^6 microbes per ml. When organic acids are used as a combination partner with the guanidine, MHB was adjusted to pH 5.5.
The incubation was run in microplates at 30° C. for 48 hours. After 48 hours, the batches were evaluated for turbidity resulting from growth, and optical density was additionally determined photometrically. In this way, the minimum inhibitory concentrations (MICs) of the two actives were determined individually and in combination.
The calculation was done according to the standard method of F. C. Kull et al., Applied Microbiology, vol. 9 (1961), p. 538.
This involves calculating the synergy index (SI) by the following formula:
[formula] • Qa=concentration of component A in the A+B mixture • QA=concentration of component A as the sole biocide • Qb=concentration of component B in the A+B mixture • QB=concentration of component B as the sole biocide
If the synergy index is greater than 1, this means that there is antagonism. If the synergy index assumes the value 1, this means that the effect of the two biocides/compounds is additive. If the synergy index assumes a value of less than 1, this means that there is synergism between the two biocides/compounds.

The mark [1] stands for this setting: mixture with guanidine, Qa, 48 hours at 30° C.

Take `OCCCc1ccccc1`: for the setting “guanidine and phenylpropanol, Qa”, the “Synergy index Qa/QA + Qb/QB” value is recorded as 1.00. Moreover, the “QB: Concentration of phenylpropanol as the sole agent that shows an endpoint” value (phenylpropanol alone, 48 hours at 30° C.) was found to be 2000 ppm.
Take `O=[N+]([O-])C(Br)(CO)CO` [bronopol]: the “QB: Concentration of bronopol as the sole agent that shows an endpoint” value (bronopol alone, 48 hours at 30° C.) is 25 ppm. Further, the “Synergy index Qa/QA + Qb/QB” value (guanidine and bronopol, Qa) stood at 1.00.
As for `Cn1sccc1=O` [MIT, 2-methyl-4-isothiazolin-3-one], the “QB: Concentration of MIT as the sole agent that shows an endpoint” value (MIT alone, 48 hours at 30° C.) came to 75 ppm. Moreover, for the setting “guanidine and MIT, Qa”, the “Synergy index Qa/QA + Qb/QB” value amounted to 1.00.
Take `O=C(O)c1ccccc1` [benzoic acid]: the “QB: Concentration of benzoic acid as the sole agent that shows an endpoint” value (benzoic acid (added as sodium benzoate) alone, MHB adjusted to pH 5.5, 48 hours at 30° C.) was 1680 ppm. In addition, the “Synergy index Qa/QA + Qb/QB” value (guanidine and benzoic acid, Qa, pH 5.5) turned out to be 1.00.
Turning to `OCCc1ccccc1` [phenethyl alcohol], the “Synergy index Qa/QA + Qb/QB” value (guanidine and phenethyl alcohol, Qa) was 1.00. Besides, the “QB: Concentration of phenethyl alcohol as the sole agent that shows an endpoint” value (phenethyl alcohol alone, 48 hours at 30° C.) was found to be 2500 ppm.
With `CCCCCCCCn1sccc1=O` [OIT, octylisothiazolinone], the “QB: Concentration of OIT as the sole agent that shows an endpoint” value (OIT alone, 48 hours at 30° C.) was 250 ppm. Further, the “Synergy index Qa/QA + Qb/QB” value (guanidine and OIT, Qa) came to 1.00.
In the case of `CCCCC(O)CO` (centres unmarked) [hexane-1,2-diol], the “Synergy index Qa/QA + Qb/QB” value (guanidine and hexane-1,2-diol, Qa) was found to be 1.00. In addition, the “QB: Concentration of hexane-1,2-diol as the sole agent that shows an endpoint” value (hexane-1,2-diol alone, 48 hours at 30° C.) turned out to be 7500 ppm.
As for `N#CCCC(Br)(C#N)CBr` (centres unmarked) [DBDCB, dibromodicyanobutane], under “DBDCB alone, 48 hours at 30° C.”, the “QB: Concentration of DBDCB as the sole agent that shows an endpoint” value is listed as 250 ppm. For the setting “guanidine and DBDCB, Qa”, the “Synergy index Qa/QA + Qb/QB” value is recorded as 1.00.
As to `O=C(O)CC(O)(CC(=O)O)C(=O)O` [citric acid], the “QB: Concentration of citric acid as the sole agent that shows an endpoint” value (citric acid (added as trisodium citrate) alone, MHB adjusted to pH 5.5, 48 hours at 30° C.) is on record as 51293 ppm.
As for `C/C=C/C=C/C(=O)O` [sorbic acid], for the setting “guanidine and sorbic acid, Qa, pH 5.5”, the “Synergy index Qa/QA + Qb/QB” value is reported as 1.00. For the same molecule, the “QB: Concentration of sorbic acid as the sole agent that shows an endpoint” value (sorbic acid (added as potassium sorbate) alone, MHB adjusted to pH 5.5, 48 hours at 30° C.) was 1849 ppm.
Regarding `NCCO` [MEA, monoethanolamine], where the note is “MEA alone, 48 hours at 30° C.”, the “QB: Concentration of MEA as the sole agent that shows an endpoint” value was determined as 2000 ppm. Besides, the “Synergy index Qa/QA + Qb/QB” value (guanidine and MEA, Qa) is reported as 1.00.
As for `O=C(O)c1ccccc1O` [salicylic acid], for the setting “guanidine and salicylic acid, Qa, pH 5.5”, the “Synergy index Qa/QA + Qb/QB” value came to 1.00. Further, the “QB: Concentration of salicylic acid as the sole agent that shows an endpoint” value (salicylic acid (added as sodium salicyate) alone, MHB adjusted to pH 5.5, 48 hours at 30° C.) is given as 1713 ppm.
Turning to `O=C(O)CN(CCN(CC(=O)O)CC(=O)O)CC(=O)O` [EDTA, ethylenediaminetetraacetic acid], the “QB: Concentration of EDTA as the sole agent that shows an endpoint” value (EDTA alone, 48 hours at 30° C.) was 300 ppm. In addition, for the setting “guanidine and EDTA, Qa”, the “Synergy index Qa/QA + Qb/QB” value turned out to be 1.00. Also, the “Qb (EDTA): Concentration of EDTA in the mixture that shows an endpoint” value under setting [1] is 250 ppm and 200 ppm and 175 ppm and 125 ppm.
With `Cn1sc2ccccc2c1=O` [MBIT, N-methyl-1,2-benzisothiazolin-3-one], the “QB: Concentration of MBIT as the sole agent that shows an endpoint” value (MBIT alone, 48 hours at 30° C.) is 300 ppm. Moreover, the “Synergy index Qa/QA + Qb/QB” value (guanidine and MBIT, Qa) is on record as 1.00.
In the case of `CCCCn1sc2ccccc2c1=O` [BBIT, N-butyl-1,2-benzisothiazolin-3-one], the “QB: Concentration of BBIT as the sole agent that shows an endpoint” value (BBIT alone, 48 hours at 30° C.) is recorded as 400 ppm. For the setting “guanidine and BBIT, Qa”, the “Synergy index Qa/QA + Qb/QB” value worked out at 1.00.
Take `Oc1ccccc1-c1ccccc1` [oPP, o-phenylphenol]: under “guanidine and oPP, Qa”, the “Synergy index Qa/QA + Qb/QB” value is 1.00. For the same molecule, for the setting “oPP alone, 48 hours at 30° C.”, the “QB: Concentration of oPP as the sole agent that shows an endpoint” value came out at 750 ppm.
As for `CC(C)(N)CO` [AMP, 2-amino-2-methyl-1-propanol], for the setting “AMP alone, 48 hours at 30° C.”, the “QB: Concentration of AMP as the sole agent that shows an endpoint” value was found to be 2500 ppm. Moreover, the “Synergy index Qa/QA + Qb/QB” value (guanidine and AMP, Qa) is given as 1.00.
With `CC(O)(P(=O)(O)O)P(=O)(O)O` [HEDP, (1-hydroxyethylidene)bisphosphonic acid], the “QB: Concentration of HEDP as the sole agent that shows an endpoint” value (HEDP alone, 48 hours at 30° C.) was found to be 300 ppm. In addition, under “guanidine and HEDP, Qa”, the “Synergy index Qa/QA + Qb/QB” value is listed as 1.00. Under setting [1], the “Qb (HEDP): Concentration of HEDP in the mixture that shows an endpoint” value is on record as 1000 ppm.
`CCCC(O)CO` (centres unmarked) [pentane-1,2-diol]: under “guanidine and pentane-1,2-diol, Qa”, the “Synergy index Qa/QA + Qb/QB” value is listed as 1.00. For the same molecule, the “QB: Concentration of pentane-1,2-diol as the sole agent that shows an endpoint” value (pentane-1,2-diol alone, 48 hours at 30° C.) was determined as 10000 ppm.
With `CCCCCCOCC(O)CO` (centres unmarked) [hexylglycerol], the “Synergy index Qa/QA + Qb/QB” value (guanidine and hexylglycerol, Qa) is reported as 1.00. The “QB: Concentration of hexylglycerol as the sole agent that shows an endpoint” value (hexylglycerol alone, 48 hours at 30° C.) amounted to 2000 ppm.
As to `N#CC(Br)(Br)C(N)=O` [DBNPA, dibromonitrilopropionamide], the “QB: Concentration of DBNPA as the sole agent that shows an endpoint” value (DBNPA alone, 48 hours at 30° C.) is recorded as 25 ppm. Moreover, under “guanidine and DBNPA, Qa”, the “Synergy index Qa/QA + Qb/QB” value is 1.00.
For the molecule `CCCCC(CC)COCC(O)CO` (centres unmarked) [EHG, ethylhexylglycerol], where the note is “EHG alone, 48 hours at 30° C.”, the “QB: Concentration of EHG as the sole agent that shows an endpoint” value was 2000 ppm. Further, the “Synergy index Qa/QA + Qb/QB” value (guanidine and EHG, Qa) came out at 1.00.
Take `[O-][n+]1ccccc1S` [pyrithione]: the “Synergy index Qa/QA + Qb/QB” value (guanidine and pyrithione, Qa) amounted to 1.00. Besides, where the note is “pyrithione (added as sodium pyrithione) alone, 48 hours at 30° C.”, the “QB: Concentration of pyrithione as the sole agent that shows an endpoint” value was 127 ppm.
For `CCCCCC(O)CO` (centres unmarked) [heptane-1,2-diol], the “Synergy index Qa/QA + Qb/QB” value (guanidine and heptane-1,2-diol, Qa) stood at 1.00. The “QB: Concentration of heptane-1,2-diol as the sole agent that shows an endpoint” value (heptane-1,2-diol alone, 48 hours at 30° C.) came out at 3750 ppm.
As for `CCC(N)(CO)CO` [AEPD, 2-aminoethylpropane-1,3-diol], the “QB: Concentration of AEPD as the sole agent that shows an endpoint” value (AEPD alone, 48 hours at 30° C.) is recorded as 5000 ppm. In addition, where the note is “guanidine and AEPD, Qa”, the “Synergy index Qa/QA + Qb/QB” value is 1.00.
For the molecule `OCc1ccccc1` [benzyl alcohol], the “QB: Concentration of benzyl alcohol as the sole agent that shows an endpoint” value (benzyl alcohol alone, 48 hours at 30° C.) is given as 2000 ppm. The “Synergy index Qa/QA + Qb/QB” value (guanidine and benzyl alcohol, Qa) is on record as 1.00.
For the molecule `CC(O)C(=O)O` (centres unmarked) [lactic acid], the “Synergy index Qa/QA + Qb/QB” value (guanidine and lactic acid, Qa, pH 5.5) turned out to be 1.00. The “QB: Concentration of lactic acid as the sole agent that shows an endpoint” value (lactic acid (added as sodium L-lactate) alone, MHB adjusted to pH 5.5, 48 hours at 30° C.) worked out at 15896 ppm.
As for `CCCCCCC(O)CO` (centres unmarked) [octane-1,2-diol], the “Synergy index Qa/QA + Qb/QB” value (guanidine and octane-1,2-diol, Qa) was 1.00. Where the note is “octane-1,2-diol alone, 48 hours at 30° C.”, the “QB: Concentration of octane-1,2-diol as the sole agent that shows an endpoint” value was 2000 ppm.
`CC(C)O` [isopropanol]: the “Synergy index Qa/QA + Qb/QB” value (guanidine and isopropanol, Qa) is recorded as 1.00. Besides, the “QB: Concentration of isopropanol as the sole agent that shows an endpoint” value (isopropanol alone, 48 hours at 30° C.) is reported as 60000 ppm.
